Tested on: HCT116 cells
Test: Cytotoxic activity: tumor cell proliferation assay (Alamar Blue)
Type: cell-based
Conditions: Homo sapiens, HCT-116, 72 h with compound, Alamar Blue readout
Description: The following section describes an assay that can be used to characterize compounds of the invention, e.g., to test for the cytotoxic activity of compounds on cells.
Human tumor cells, e.g., HCT116 cells, are seeded in a 96-well plate at 3.0×10^3 cells/well and grown in 100 μl of RPMI complete media (Invitrogen Corporation, Grand Island, N.Y., USA) containing 10% fetal bovine serum (Hyclone, Logan, Utah, USA) and 10 mM HEPES and at 37° C. for 16 h in an incubator with 5% CO2. To each well, 50 μl of additional growth media containing 20 μM to 60 nM concentrations of compound with 0.2% DMSO is added. Cells are grown for another 72 h at 37° C. 20 μl of Alamar Blue (Trek Diagnostic Systems, Inc., Cleveland, Ohio, USA) reagent is added to each well and incubated for 4 h at 37° C. Plates are read in a SpectraMax Gemini (Molecular Devices, CA, USA) with 544 nm excitation and 590 nm emission wavelength. IC50 values are determined by linear regression analysis of log drug concentration versus percent inhibition.

SMILES	IC50
Nc1nc(Nc2ccc(Oc3ccnc(C(F)(F)F)c3)cc2)cc(-c2cncnc2)n1 [Example 337, N^6-(4-{[2-(trifluoromethyl)pyridin-4-yl]oxy}phenyl)-4,5′-bipyrimidine-2,6-diamine]	135 nM
Cc1cc(Oc2ccc(Nc3cc(-c4ccc(N)nc4)nc(N)n3)cc2)ccn1 [Example 336, 6-(6-aminopyridin-3-yl)-N^4-{4-[(2-methylpyridin-4-yl)oxy]phenyl}pyrimidine-2,4-diamine]	6 nM
Cc1cccc(C)c1-c1cc(Nc2ccc(Oc3ccnc(C(F)(F)F)c3)cc2)nc(N)n1 [Example 335, 6-(2,6-dimethylphenyl)-N^4-(4-{[2-(trifluoromethyl)pyridin-4-yl]oxy}phenyl)pyrimidine-2,4-diamine]	62 nM
Nc1ccc(-c2cc(Nc3ccc(Oc4ccnc(C(F)(F)F)n4)cc3)nc(N)n2)cn1 [Example 339, 6-(6-aminopyridin-3-yl)-N^4-(4-{[2-(trifluoromethyl)pyrimidin-4-yl]oxy}phenyl)pyrimidine-2,4-diamine]	3 nM
Nc1nc(Nc2ccc(Oc3ccnc(C(F)(F)F)n3)cc2)cc(-c2ccccc2)n1 [Example 338, 6-phenyl-N^4-(4-{[2-(trifluoromethyl)pyrimidin-4-yl]oxy}phenyl)pyrimidine-2,4-diamine]	17 nM

Source: patent publication US20110098301A1, “Pyrimidine Derivatives for Treatment of Hyperproliferative Disorders” (BAYER HEALTHCARE LLC, priority 2005, published 2011)
